{
  "source": "paper PMC10834624",
  "about": "“Estrogen receptor α interaction of zearalenone and its phase I metabolite α-zearalenol in combination with soy isoflavones in hERα-HeLa-9903 cells” (Mycotoxin Research, 2023)",
  "key": {"hERα-HeLa-9903 cells [1]": {"tested_on": "hERα-HeLa-9903 cells", "experiment": "Sulforhodamine B (SRB) assay, cell protein amount", "assay_type": "cell-based, human", "details": "10 µM 4-OH-TAM, 24 h", "procedure": "The SRB assay was conducted immediately after the CTB assay. Following the removal of the remaining CTB solution the cells in each well were fixed with 10 µL of a 50% trichloroacetic acid solution in distilled water. The 96-well plates were placed for 1 h into the refrigerator at 4 °C. Upon this cold incubation, the plates were carefully rinsed twice with tap water and then left to dry in a dark surrounding. Once the plates had dried, 50 µL of the SRB solution was pipetted into each well. The dye was left to stain the proteins for 1 h, again in a dark setting at room temperature. Afterwards the dye was rinsed off twice with tap water and twice with a 1% acetic acid solution. […] Once the plates had dried, the SRB solution bound to the protein components of the cells was dissolved in 100 µL of an alkaline Tris base solution (0.30 g tris(hydroxymethyl-) aminomethane solved in 250 mL distilled water) by shaking for 5 min in the plate reader (Victor V3 1240 Multilabel Counter from Perkin Elmer (Waltham/MA, USA) or the Cytation 3 Cell Imaging Multi-Mode Reader from Biotek® (Winooski/VT Vermont, USA)). Subsequently, the absorbance was measured at 570 nm and as for the CTB; the final results were referred to the solvent control (0.1% DMSO) in percentage."}, "[2]": {"target": "T1, ERα (hERα-HeLa-9903 cells) (Homo sapiens, UniProt P03372)", "T1 construct": "host or cells: hERα-HeLa-9903 (modified human cervical HeLa cell line)", "T1 sequence (P03372 whole entry)": "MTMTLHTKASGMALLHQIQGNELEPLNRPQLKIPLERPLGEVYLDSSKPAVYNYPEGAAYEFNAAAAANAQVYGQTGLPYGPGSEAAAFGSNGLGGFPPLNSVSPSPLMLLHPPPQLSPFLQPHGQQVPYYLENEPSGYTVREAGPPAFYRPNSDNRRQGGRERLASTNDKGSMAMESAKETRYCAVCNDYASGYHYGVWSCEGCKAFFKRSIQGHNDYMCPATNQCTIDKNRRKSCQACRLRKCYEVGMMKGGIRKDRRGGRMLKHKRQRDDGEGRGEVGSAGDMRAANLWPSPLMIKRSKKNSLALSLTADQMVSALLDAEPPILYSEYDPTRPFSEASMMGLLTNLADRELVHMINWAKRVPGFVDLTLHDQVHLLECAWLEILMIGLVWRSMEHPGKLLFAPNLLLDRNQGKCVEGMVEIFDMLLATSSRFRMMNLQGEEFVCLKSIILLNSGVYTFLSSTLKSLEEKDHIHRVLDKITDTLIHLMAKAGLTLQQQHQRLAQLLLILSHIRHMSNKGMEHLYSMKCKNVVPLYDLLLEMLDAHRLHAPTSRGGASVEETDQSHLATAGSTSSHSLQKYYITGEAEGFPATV", "experiment": "cell-based", "assay_type": "cell-based", "details": "for Luciferase induction: 1 nM E2=100%; for induced ERα-dependent luciferase expression in concentrations above: abstract; for concentration at which an increase in luciferase activity was initiated: discussion", "procedure": "The assays were performed in 96-well plates following the instructions of the manufacturer (Promega [2007]). Per well, 10,000 hERα-HeLa-9903 cells in assay medium were seeded and grown for 3 h. […] The substances were previously dissolved in DMSO in […] higher concentrations than the tested concentration, followed by dilution in the assay medium. In case of single substance testing and for the solvent control, DMSO was added to reach 0.1% in the final incubation solutions. Concentrations ranged from 0.001 to 100 nM in case of ZEN and its metabolites and 0.001 to 100 µM in case of ISF, with 1:10 dilution steps in between. […] All experiments were performed in technical triplicates and at least five independent biological replicates.\nFollowing the 24-h incubation, the supernatants were discarded and 100 µL of a ONE-Glo™ EX luciferase incubation solution (1:1 dilution of OGL reagent and EMEM (5% CD-FBS)) was added and shaken for 5 min. Subsequently, 90 µL of the supernatant of each well was transferred to a new, white 96-well plate. The luminescence of the white plate was directly measured with a gain of 140 using the Victor V3 1240 Multilabel Counter from Perkin Elmer (Waltham/MA, USA) or the Cytation 3 Cell Imaging Multi-Mode Reader from Biotek® (Winooski/VT, USA)."}, "hERα-HeLa-9903 cells [3]": {"tested_on": "hERα-HeLa-9903 cells"}, "[4]": {"tested_on": "firefly luciferase encoding gene (hERα-HeLa-9903 cells)", "experiment": "RT-qPCR of luciferase mRNA", "assay_type": "cell-based, human", "details": "10 nM, 24 h", "procedure": "For the RT-qPCR, cells (hERα-HeLa-9903) were seeded in assay medium in 12-well plates at a density of 150,000 cells and allowed to grow for 24 h. Incubation solutions contained 0.1% DMSO and the test compounds and compound mixtures at various concentrations. After the same incubation time as the OGL-assay (24 h), cells were washed and subsequently the total RNA was extracted following the RNeasy Mini Kit protocol from Qiagen. The following reverse transcription was performed according to the QuantiTect-Reverse-Transcription manual (Qiagen [2009]) to transcribe 1 µg RNA to cDNA. Then, RT-qPCR was performed using primers for the firefly luciferase encoding gene with the following oligonucleotide sequences for reverse primer 5′-[…]-3′ and forward primer 5′-[…]-3′, as well as the endogenous control primers delta-aminolevulinate synthase (1HS_ALAS1_1_SG, QT00073122), actin beta (Hs_ACTB_1_SG, QT00095431) and glyceraldehyde-3-phosphate dehydrogenase (Hs_GAPDH_1_SG, QT00079247) with SYBR green as fluorescent probe. The amplification the following setting was applied: 95 °C for 2 min, followed by 40 repetition cycles of: 95 °C (15 s), 55 °C (15 s), 72 °C (60 s). […] Quantification was performed according to Livak and Schmittgen ([2001]) using the 2-ΔΔCt method resulting in the depiction of fold-changes in comparison to the solvent control."}, "[5]": {"tested_on": "Ishikawa cells, expressing ERα and ERβ", "details": "0.001–0.01 nM with GEN, DAI or EQ 0.001–0.1 µM; ref Grgic et al. [2022]; cited from earlier work"}, "[6]": {"details": "single mycoestrogen 100 nM, 24 h"}},
  "note": "Like-named read-outs stand apart in the source and are kept apart here.",
  "data": [
    {"smiles": "CC/C(=C(\\c1ccc(O)cc1)c1ccc(OCCN(C)C)cc1)c1ccccc1", "note": "[4-OH-TAM, (Z)-4-hydroxytamoxifen]", "values": [
      {"measurement": "protein content (SRB)", "setting": "hERα-HeLa-9903 cells [1]", "value": "tendency to decrease the protein content"}
    ]},
    {"smiles": "O=c1c(-c2ccc(O)cc2)coc2cc(O)ccc12", "note": "[DAI, daidzein]", "values": [
      {"measurement": "transcriptional activity compared to E2 after calculating the difference between 4-OH-TAM treated and untreated samples", "setting": "[2]", "value": "higher transcriptional activity"},
      {"measurement": "metabolic activity (CTB) vs solvent control", "setting": "hERα-HeLa-9903 cells [3]", "value": "no significant difference was observed"}
    ]},
    {"smiles": "Oc1ccc([C@H]2COc3cc(O)ccc3C2)cc1", "note": "[EQ, S-equol]", "values": [
      {"measurement": "EC50", "setting": "[2]; isoflavones, 24 h, read-out: EC50 (sigmoidal dose-response curve fit of luciferase induction)", "value": "1600 ± 200", "unit": "nM"},
      {"measurement": "Luciferase induction", "setting": "[2]; single isoflavone 10 μM, 24 h", "value": 334, "unit": "%"},
      {"measurement": "metabolic activity (CTB) vs solvent control", "setting": "hERα-HeLa-9903 cells [3]", "value": "no significant difference was observed"}
    ]},
    {"smiles": "O=c1c(-c2ccc(O)cc2)coc2cc(O)cc(O)c12", "note": "[GEN, genistein]", "values": [
      {"measurement": "metabolic activity (CTB) vs solvent control", "setting": "hERα-HeLa-9903 cells [3]", "value": "no significant difference was observed"}
    ]},
    {"smiles": "C[C@H]1CCCC(=O)CCC/C=C/c2cc(O)cc(O)c2C(=O)O1", "note": "[ZEN, zearalenone]", "values": [
      {"measurement": "EC50", "setting": "[2]", "value": "24.4 ± 0.4", "unit": "nM"},
      {"measurement": "induced ERα-dependent luciferase expression in concentrations above", "setting": "[2]", "value": "above 1 nM"},
      {"measurement": "concentration at which an increase in luciferase activity was initiated", "setting": "[2]", "value": 0.1, "unit": "nM"},
      {"measurement": "Luciferase induction", "setting": "[2]; [6]", "value": 86, "unit": "%"},
      {"measurement": "luciferase mRNA levels", "setting": "[4]", "value": "induce luciferase mRNA levels significantly"},
      {"measurement": "estrogenic response in combination compared to single substances", "setting": "[5]", "value": "significantly enhanced the estrogenic response"}
    ]},
    {"smiles": "C[C@H]1CCC[C@H](O)CCC/C=C/c2cc(O)cc(O)c2C(=O)O1", "note": "[α-ZEL, α-zearalenol]", "values": [
      {"measurement": "potency to induce luciferase compared to ZEN", "setting": "[2]; 0.01 to 10 nM", "value": "higher potency"},
      {"measurement": "induced ERα-dependent luciferase expression in concentrations above", "setting": "[2]", "value": "> 10", "unit": "pM"},
      {"measurement": "concentration at which an increase in luciferase activity was initiated", "setting": "[2]", "value": 0.01, "unit": "nM"},
      {"measurement": "EC50", "setting": "[2]; mycoestrogens, 24 h, read-out: EC50 (sigmoidal dose-response curve fit of luciferase induction)", "value": "0.057 ± 0.004", "unit": "nM"},
      {"measurement": "Luciferase induction", "setting": "[2]; [6]", "value": 95, "unit": "%"},
      {"measurement": "estrogenic response in combination compared to single substances", "setting": "[5]", "value": "significantly enhanced the estrogenic response"}
    ]},
    {"smiles": "C[C@H]1CCC[C@H](O)CCCCCc2cc(O)cc(O)c2C(=O)O1", "note": "[α-zearalanol]", "values": [
      {"measurement": "estrogenic response in combination compared to single substances", "setting": "[5]", "value": "significantly enhanced the estrogenic response"}
    ]}
  ]
}
